Source: PubChem BioAssay (NCI)
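Results reflect a 48-hour exposure of cells in 96-well plates to compound at five concentrations. At the GI50, growth is halved. TGI is the concentration that stops growth completely.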

Columns and labels:
Assay in all cases: NCI-60 cell line screen, 48 h
DMS 273 small cell lung = tested on: DMS 273 small cell lung
SNB-78 CNS = tested on: SNB-78 CNS
DMS 114 small cell lung = tested on: DMS 114 small cell lung
XF 498 CNS = tested on: XF 498 CNS
HOP-18 NSCLC = tested on: HOP-18 NSCLC
M19-MEL melanoma = tested on: M19-MEL melanoma
MDA-N = tested on: MDA-N
BT-549 breast = tested on: BT-549 breast
RXF-631 renal = tested on: RXF-631 renal

SMILES	TGI (DMS 273 small cell lung) [µM]	TGI (SNB-78 CNS) [µM]	TGI (DMS 114 small cell lung) [µM]	TGI (XF 498 CNS) [µM]	TGI (HOP-18 NSCLC) [µM]	TGI (M19-MEL melanoma) [µM]	also measured
CCOc1ccccc1NC(=O)CCC(=O)OC	> 100	> 100	> 100	> 100	> 100	> 100	
N#Cc1cc(C#N)c(Cl)nc1N							TGI (MDA-N): > 10 µM
COc1cccc2c1C(=O)c1c(O)c3c(c(O)c1C2=O)CC(O)(C(C)=O)CC3OC1CC(N)C(O)C(C)O1 (configuration not stated)							GI50 (MDA-N): 0.156 µg/mL; TGI (MDA-N): 0.391 µg/mL; GI50 (BT-549 breast): 0.0458 µg/mL; TGI (BT-549 breast): 0.459 µg/mL
N#C/C(=C\c1ccccc1O)C(N)=O	> 100	> 100	> 100	> 100		> 100	TGI (RXF-631 renal): > 100 µM
CN(C)c1ccc2c(c1)C(=O)N(OS(=O)(=O)c1ccc([N+](=O)[O-])cc1)C2=O	43.9	73.8	> 10	35.1	> 100	52.7	TGI (RXF-631 renal): 47.1 µM
Cc1ccc(C)c(NC(=O)C(=O)CC(=O)C2CCOC2=O)c1 (configuration not stated)	> 100	> 100	> 100	> 100		> 100	
Nc1nc(CCC(=O)Nc2cccc(C(F)(F)F)c2)cc(-c2cccc3ccccc23)n1	> 100	> 100	> 100	> 100	> 100	> 100	TGI (RXF-631 renal): > 100 µM
Cc1ccc(NCCCN2CCN(CCCNc3ccc(C)c4sc5ccccc5c(=O)c34)CC2)c2c(=O)c3ccccc3sc12							TGI (MDA-N): > 100 µM
Cc1cccc(C(=O)c2cccc3ccccc23)c1C(=O)O	> 100	> 100	13.8	> 100	> 100	> 100	TGI (RXF-631 renal): > 100 µM
CC1=C(C(=O)NCc2ccccc2)C(c2ccc(C3C(C(=O)NCc4ccccc4)=C(C)NC(C)=C3C(=O)NCc3ccccc3)cc2)C(C(=O)NCc2ccccc2)=C(C)N1	31.7	27.1	25.9	31.1	52.7	21.3	
COC(=O)Cc1cc(OC)c(OC)cc1Br		> 100	> 100			> 100	
O=C(O)c1ccccc1Cc1ccco1	> 100	> 100	> 100		> 100		
O=C(CC1=Nc2nnc(-c3nnc4n3C(=O)C(CC(=O)c3cccnc3)=N4)n2C1=O)c1cccnc1	> 100	> 100	> 100			> 100	TGI (RXF-631 renal): > 100 µM
C#CCC[C@@H]1O[C@@]1(C)CC/C=C(\C)CC/C=C/C=O	39	77.3	35.1	58.2		48.1	
CC1CC2C3CC(F)C4=CC(=O)C=CC4(C)C3(F)C(O)CC2(C)C1(O)C(=O)COC(=O)C(C)(C)C (configuration not stated)	> 100	> 100	> 100	> 100		> 100	
CC1=CCC[C@@]2(C)C(CC[C@@H]2C(C)/C=C/C(C)C)c2ccc(cc2C(=O)O)C[C@@H](O)CC1 (some centres not stated)	34.2	34.5	40.3			29.6	
CCSc1nnc2c(-c3ccccc3)n[nH]c2n1							TGI (MDA-N): > 100 µM; TGI (BT-549 breast): > 100 µM
COc1cccc([C@H]2CC(=O)c3cc4c(cc3N2)OCO4)c1							GI50 (MDA-N): 0.0287 µM
O=C1c2ccccc2C2(O)Nc3cc(O)ccc3C12O (configuration not stated)	> 100	> 100	> 100		> 100		TGI (RXF-631 renal): > 100 µM
CC(C)=CCN=C(N)N							TGI (MDA-N): > 100 µM; TGI (BT-549 breast): > 100 µM
CN1C(=O)c2c(ccc3c2OCO3)C2C(O)Cc3cc4c(cc3C21)OCO4 (configuration not stated)							TGI (MDA-N): 5.56 µM; TGI (BT-549 breast): > 100 µM

SMILES	TGI (DMS 273 small cell lung) [µM]	TGI (SNB-78 CNS) [µM]	TGI (DMS 114 small cell lung) [µM]	TGI (XF 498 CNS) [µM]	TGI (HOP-18 NSCLC) [µM]	TGI (M19-MEL melanoma) [µM]	also measured
CCC(C)CN1C(=O)NC(C)(Cc2ccccc2)C1=O (configuration not stated)	> 100	> 100	> 100	> 100	> 100	> 100	
CC1=NN(C(=O)c2ccccc2O)C(=O)/C1=C/c1ccc([N+](=O)[O-])cc1		> 100	7.81	> 100		> 100	GI50 (MDA-N): 0.0903 µM; TGI (MDA-N): > 100 µM; GI50 (BT-549 breast): 0.127 µM; TGI (BT-549 breast): > 100 µM
Cc1ccc(C(=O)O/N=C2/CCCC/C2=C\c2ccccc2)cc1	76.9	53.4		> 100	> 100	> 100	
COc1cc2c(cc1OC)C13CCN4C=C5CCOC6CC(=O)N2C1C6C5CC43 (configuration not stated)							TGI (MDA-N): > 100 µM; TGI (BT-549 breast): > 100 µM
COc1cc2c(cc1O)C=NCC2	> 100	> 100	> 100	> 100		> 100	
N#Cc1cccc(N2C(=O)c3c(c(-c4ccccc4)c(-c4ccc(Sc5ccc(-c6c(-c7ccccc7)c7c(c(-c8ccccc8)c6-c6ccccc6)C(=O)N(c6cccc(C#N)c6)C7=O)cc5)cc4)c(-c4ccccc4)c3-c3ccccc3)C2=O)c1	> 100	> 100	> 100	85			TGI (RXF-631 renal): > 100 µM
CCC[CH2][Sn]([CH2]CCC)([O]C(=O)c1c(F)cccc1F)[O]C(=O)c1c(F)cccc1F	2.27	1.47	0.602	2.59	3.3	1.43	GI50 (DMS 273 small cell lung): 1.07 µM; GI50 (SNB-78 CNS): 0.333 µM; GI50 (DMS 114 small cell lung): 0.214 µM; GI50 (XF 498 CNS): 1.31 µM; GI50 (HOP-18 NSCLC): 1.89 µM; GI50 (M19-MEL melanoma): 0.364 µM
O=C(NCCCCCCCCNC(=O)c1cnc2ccccc2n1)c1cnc2ccccc2n1	> 100	> 100	> 100	> 100	> 100	> 100	
Nc1ncnc2c1ncn2C1OC(COP(=O)(O)CP(=O)(O)O)C(O)C1O (configuration not stated)							TGI (MDA-N): > 100 µM; TGI (BT-549 breast): > 100 µM
CCCCCCCCCCCOC(=S)NC(C)C	34.4	78.5	36.1	30.9	88.5	58.6	
COc1ccc(/C(=N/NC(N)=O)C2(O)C(=O)Nc3ccc([N+](=O)[O-])cc32)cc1 (configuration not stated)	39.3	34.7	47.8	30.1		45.6	
N=C(c1ccccc1)N(c1ccccc1)c1ccccc1	> 100	> 100			13.1	> 100	
FC(F)(F)C1(Cl)C(c2ccccc2)=C1c1ccccc1	27.6	33.1	25.6	26.5	35.6	27.7	TGI (RXF-631 renal): 29.2 µM
C=CCC1OC(C)(C)Oc2ccc(OCOCCOC)cc21 (configuration not stated)			> 100				
O=C(O)CN(c1ccccc1)S(=O)(=O)c1ccc(NC(=O)c2ccccc2)cc1	> 100			> 100	> 100	> 100	
COc1ccc(S(=O)(=O)NC(C)C(=O)O)cc1 (configuration not stated)	> 100			63.4	> 100	> 100	
CC1=CC2CC(C)=C(CC[C@]3(C)CC[C@H]([C@@H](C)C(=O)O)OO3)C(C)(C)C2CC1 (some centres not stated)	1.09	4.09	0.973	0.768	1.45	3.05	TGI (RXF-631 renal): 2.95 µM
CC[P+](C)(Cc1ccccc1)c1ccccc1 (configuration not stated)	> 100	> 100	> 100	> 100	> 100	> 100	
Cn1cc(-c2nonc2-c2c[nH]c3ccccc23)c2ccccc21							GI50 (BT-549 breast): 0.588 µM; TGI (BT-549 breast): 7.78 µM
Cc1[nH]ncc1-c1cc2nc(C3CC4CCN3CC4)[nH]c(=O)c2s1 (configuration not stated)							GI50 (BT-549 breast): 2.59 µM; TGI (BT-549 breast): 29.6 µM
